Laboratory results taken from publication PMC5220503, “Simultaneous Determination of Bergapten, Imperatorin, Notopterol, and Isoimperatorin in Rat Plasma by High Performance Liquid Chromatography with Fluorescence Detection and Its Application to Pharmacokinetic and Excretion Study after Oral Administration of Notopterygium incisum Extract” (International Journal of Analytical Chemistry, 2016).
Where two headings read alike, the source gives them in different places.

Assays:
[1] = Pharmacokinetic study in rats after oral administration of N. incisum extract (HPLC-FLD of plasma); format: in vivo, Sprague–Dawley rats
Description: HPLC analysis was performed on an Agilent 1100 HPLC (Agilent Technologies, USA) equipped with a quaternary pump, a degasser, an autosampler, a column thermostat compartment, and a diode array detector (DAD). An Agilent fluorescence detector was coupled to the Agilent system. Separation was carried out with a Hedera ODS column (4.6 mm × 250 mm, 5 μm) by gradient elution at a temperature of 40°C. Excitation and emission of the fluorescence detector were set to 300 nm and 490 nm, respectively. The analysis involved a constant flow rate of 1.0 mL min^−1 and an injection volume of 30 μL. The mobile phase comprised of (A) aqueous formic acid (0.1%, v/v) and (B) acetonitrile after degassing through ultrasonication using a gradient elution of 15–30% B at 0 to 10 min, 30–42% B at 10 to 20 min, 42% B at 20 to 65 min, 42–80% B at 65–70 min, and 80–90% at 70–75 min. The reequilibration time of gradient elution was 10 min. Owing to the similarity in polarity of imperatorin and notopterol, it was essential to maintain 42% of acetonitrile for 45 min to ensure that the two compounds were well separated.
To a 100 μL aliquot of plasma sample, 10 μL IS solution was added. Samples were vortex-mixed for 2 min, extracted with 1000 μL ethyl acetate, and then centrifuged for 10 min at 18000 ×g. Supernatant was transferred into another centrifuge tube and evaporated to dryness using nitrogen gas. The dried residue was reconstituted by adding 100 μL methanol. The solution was shaken and ultrasonicated for 2 min. It was then centrifuged at 18000 ×g for 10 min. A 30 μL of the solution was run with the HPLC and analysis was performed.
The PK study was carried out in accordance with the guidelines for the care and use of laboratory animals and approved by the Animal Ethics Committee of Tianjin University of Traditional Chinese Medicine. Eight male Sprague–Dawley rats weighing 180–220 g were kept at the animal center of Tianjin University of Traditional Chinese Medicine (Tianjin, China) with controlled conditions (temperature at 25 ± 2°C and relative humidity of 55 ± 5%). They were allowed free access to food and water and acclimatized for 7 days until 12 h before the experiment. According to the clinical dose used in human for each day, the rats were administered an oral dose of 4.2 g kg^−1 N. incisum extract suspended in 0.5% carboxymethylcellulose sodium salt aqueous solution (CMC-Na) and an amount of blood sample (200 μL) was collected at time 0, 0.083, 0.167, 0.25, 0.5, 0.75, 1, 1.5, 2, 3, 4, 6, 8, 12, and 24 h into heparin-pretreated tubes from the fossa orbitalis of each rat after oral administration of the extract. Blood plasma was immediately obtained by centrifuging the collected blood at 3300 ×g for 10 min and storing at −20°C until analysis.
The DAS software (Drug and Statistics 1.0, Medical College of Wannan, China), a computer program, was used in calculating the pharmacokinetic parameters after administering N. incisum extract. Bergapten, imperatorin, and isoimperatorin where analyzed using a one-compartment analysis while notopterol was processed using a two-compartment analysis based on Akaike's information criterion (AIC) estimation.

[2] = Excretion study in rat urine, feces and bile after oral N. incisum extract; format: in vivo, Sprague–Dawley rats; settings: 0–72 h, oral 4.2 g kg^−1 N. incisum extract; for cumulative excretion in feces: rat feces; for cumulative excretion in urine: rat urine
Text: Sixteen male Sprague–Dawley (SD) rats (200 ± 20 g) were divided into two groups (group 1 were for collecting urine and fecal samples in metabolic cages while group 2 were for collecting bile samples from the bile duct using polyethylene tubes). For group 1, the rats were orally given N. incisum extract dissolved in 0.5% CMC-Na at a dosage of 4.2 g kg^−1 and placed in metabolic cages enabling collection of urine and fecal samples separately. The urine and fecal samples were collected at time intervals of 0–4, 4–8, 8–12, 12–24, 24–36, 36–48, 48–60, and 60–72 h. For group 2, the rats were anaesthetized with chloral hydrate at a dose of 0.3 g kg^−1 administered intraperitoneally. A polyethene tube was used in cannulating the bile duct ensuring continuous flow of bile. The rats were then administered the extract at a dose of 4.2 g kg^−1 and the bile samples were then collected at different time intervals (0-1, 1-2, 2-3, 3-4, 4-5, 5-6, 6-7, 7-8, and 8-9 h). After the volumes of urine and bile obtained were measured, these samples were stored at −20°C until analysis. The preparation of the urine and bile samples were the same as the plasma sample preparation described above. On the other hand, the fecal samples after collection were dried out in a drying oven at 40°C. After measuring the weights of the fecal samples, they were crushed by a mortar to achieve a uniform powder; 0.1 g of powdered feces was measured and 1 mL methanol was added in 1.5 mL polythene tubes, mixed sufficiently for 3 min, and extracted ultrasonically for 30 min. They were then centrifuged at 18000 ×g for 10 min. Supernatants were transferred into vials for analysis using HPLC-FLD.

[3] = Stability of analytes in rat plasma (QC samples); format: in vitro ADME; settings: n = 6; for Stability, Autosampler for 24 h, Mean: extracted rat plasma, autosampler 24 h; for Stability, Freeze-thaw cycles, Mean / Stability, At −80°C for 1 month, Mean: rat plasma; for Stability, Freeze-thaw cycles, Mean: three freeze/thaw cycles
Description: Mixed quality control (QC) samples at high, medium, low, and LLOQ concentrations were made by spiking appropriate mixed standard solutions into blank rat plasma, giving plasma concentration ranges of 600, 60, 12, and 4 ng mL^−1 for bergapten, 6000, 600, 120, and 40 ng mL^−1 for imperatorin, 600, 60, 12, and 4 ng mL^−1 for notopterol, and 300, 30, 6, and 2 ng mL^−1 for isoimperatorin, respectively, followed by the same sample preparation and extraction method described above.
The recovery was determined by comparing the observed peak area in extracted plasma samples to those of postprocessed spiked samples. […]

[4] = male, Sprague-Dawley, rat, plasma, po, 4.2 g/kg, rat plasma, oral 4.2 g kg^−1 N. incisum extract, n = 8, mean ± SD, read-out: T 1/2 (converted)
[5] = male, Sprague-Dawley, rat, plasma, po, 4.2 g/kg, rat plasma, oral 4.2 g kg^−1 N. incisum extract, n = 8, mean ± SD, read-out: T max
[6] = male, Sprague-Dawley, rat plasma, oral 4.2 g kg^−1 N. incisum extract, n = 8, mean ± SD, read-out: AUC0–∞
[7] = male, Sprague-Dawley, rat plasma, oral 4.2 g kg^−1 N. incisum extract, n = 8, mean ± SD, read-out: C max
[8] = male, Sprague-Dawley, rat plasma, oral 4.2 g kg^−1 N. incisum extract, read-out: total drug exposure in rats in over 24 h, AUC0–24
[9] = rat plasma, oral 4.2 g kg^−1 N. incisum extract, n = 8, mean ± SD
[10] = high QC (600, 6000, 600, 300 ng mL^−1)
[11] = low QC (12, 120, 12, 6 ng mL^−1)
[12] = medium QC (60, 600, 60, 30 ng mL^−1)
[13] = male, Sprague-Dawley, rat, in vivo, po, 4.2 g/kg

Row | Compound | half-life [1, 4] [h] | Tmax [1, 5] [h] | AUC(0-inf) [1, 6] [ng·h/mL] | Cmax [1, 7] [ng/mL] | AUC(0-t) [1, 8] [ng·h/mL] | T 1/2 [1, 9] [h] | T max [1, 9] [h] | cumulative excretion in feces [2] | cumulative excretion in urine [2] | further results
1 | COc1c2ccoc2cc2oc(=O)ccc12 [Bergapten, bergapten] | 12 | ~3 | 1960 ± 2490 | 184 ± 171 | 1640 ± 2490 | 12.8 ± 22.2 | 3.06 ± 3.71 | about 80% | – | Stability, Autosampler for 24 h, Mean ([3]; LLOQ QC (4, 40, 4, 2 ng mL^−1)): 100%; Stability, Autosampler for 24 h, Mean [3, 10]: 88.9%; Stability, Autosampler for 24 h, Mean [3, 11]: 101%; Stability, Autosampler for 24 h, Mean [3, 12]: 115%; Stability, Freeze-thaw cycles, Mean ([3]; LLOQ QC (4, 40, 4, 2 ng mL^−1)): 106%; Stability, Freeze-thaw cycles, Mean [3, 10]: 85.1%; Stability, Freeze-thaw cycles, Mean [3, 11]: 91.1%; Stability, Freeze-thaw cycles, Mean [3, 12]: 83.6%; Stability, At −80°C for 1 month, Mean ([3]; LLOQ QC (4, 40, 4, 2 ng mL^−1)): 80.5%; Stability, At −80°C for 1 month, Mean [3, 10]: 112%; Stability, At −80°C for 1 month, Mean [3, 11]: 91.1%; Stability, At −80°C for 1 month, Mean [3, 12]: 104%
2 | COc1ccc2ccc(=O)oc2c1CC=C(C)C [osthole, reference compound] | – | – | – | – | – | – | – | – | – | detection in rat plasma ([1]; after oral 4.2 g kg^−1 N. incisum extract): not detected
3 | CC(C)=CC(O)C/C(C)=C/COc1c2ccoc2cc2oc(=O)ccc12 (stereo not shown) [Notopterol, notopterol] | ≤ 6 | – | 296 ± 242 | 23.3 ± 6.87 | 102 ± 34.8 | 3.18 ± 3.44 | 0.45 ± 0.35 | 54.1083 + 4.4359% | 0.1171 + 0.0096% | T max ([1]; rat plasma, oral 4.2 g kg^−1 N. incisum extract, n = 8, mean ± SD, listed as notopterol): below 2 h
4 | CC(C)=CCOc1c2occc2cc2ccc(=O)oc12 [Imperatorin, imperatorin] | – | – | – | – | – | – | – | – | – | AUC(0-inf) [1, 13]: 13900 ± 13900 ng·h/mL; AUC(0-t) [1, 13]: 11000 ± 12000 ng·h/mL; Cmax [1, 13]: 1670 ± 1500 ng/mL; T 1/2 [1, 13]: 4.99 ± 3.02 h; T max [1, 13]: 1.65 ± 1.80 h; half-life ([1]; male, Sprague-Dawley, rat, in vivo, po, 4.2 g/kg, T 1/2): ≤ 6 h; Tmax ([1]; male, Sprague-Dawley, rat, in vivo, po, 4.2 g/kg, T max): < 2 h
5 | CC(C)=CCOc1c2ccoc2cc2oc(=O)ccc12 [Isoimperatorin, isoimperatorin] | ≤ 6 | < 2 | 2120 ± 2870 | 145 ± 75.9 | 830 ± 762 | 5.62 ± 4.06 | 1.59 ± 0.97 | 7.7284 + 2.2114% | 0.0084 + 0.0016% | –
